Among the data in US10695399B2, “Peptides for prevention of HIV infection” (SYRACUSE UNIVERSITY, priority 2017, dated 2020) are Kd and toxicity values, retold here.

The target in data set [1] is T1, SEVI (aggregated semen enhancer of virus infection) (Homo sapiens, UniProt P15309).
T1 construct: SEVI is the aggregated portion of the human protein that promotes infectivity
T1 sequence (P15309 248-286 limits assumed): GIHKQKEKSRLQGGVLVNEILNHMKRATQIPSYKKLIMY
The data set can be described thus: Dansyl fluorescence binding study with SEVI. How it is done: FIG. 1A is a graph of fluorescence spectra of a first dansylated peptide according to the present invention in a binding study with PAP and SEVI at a first concentration;
FIG. 1B is a graph of fluorescence spectra of the first dansylated peptide according to the present invention in a binding study with PAP and SEVI at a first concentration incubated for 24 hours;
FIG. 2A is a graph of fluorescence spectra of a first dansylated peptide according to the present invention in a binding study with PAP and SEVI at a second concentration; and
FIG. 2B is a graph of fluorescence spectra of a second dansylated peptide according to the present invention in a binding study with PAP and SEVI at a second concentration.
Dansyl is the fluorescent dye that is attached to peptides. A change in Dansyl fluorescence indicates change in the environment, i.e. binding. The physiological concentration of PAP and SEVI is 5 micromolar.

The nature of data set [2]: Preliminary toxicity studies.

Residues, ends and D or L forms follow the SMILES beside them. *: point of attachment. Dansyl = CN(C)c1cccc2c(S(=O)(=O)*)cccc12

One may read the Kd as a measure of binding affinity in units of concentration. For `CC[C@H](C)[C@H](NC(=O)[C@H](CCC(=O)O)NC(=O)[C@H](CCC(N)=O)NC(=O)[C@@H](NC(=O)[C@@H](NC(=O)[C@H](CCC(=O)O)NC(=O)[C@H](CCC(=O)O)NC(=O)[C@H](Cc1ccccc1)NS(=O)(=O)c1cccc2c(N(C)C)cccc12)[C@@H](C)CC)C(C)C)C(=O)N[C@@H](CCC(=O)O)C(=O)N[C@@H](CC(=O)O)C(=O)N[C@@H](Cc1ccccc1)C(=O)N[C@@H](CC(C)C)C(=O)N[C@@H](CCC(=O)O)C(=O)N[C@@H](CC(N)=O)C(=O)N[C@@H](CC(C)C)C(=O)N[C@H](C(N)=O)C(C)C` [Peptide 1, FEEIVQEIEDFLENLV] (Dansyl-FEEIVQEIEDFLENLV-NH2), the Kd in data set [1] was under 5 µM. In addition, in data set [2], the toxicity entry was “non-toxic”.
Take `CC[C@H](C)[C@H](NC(=O)CNS(=O)(=O)c1cccc2c(N(C)C)cccc12)C(=O)NCC(=O)N[C@@H](C)C(=O)N[C@H](C(=O)N[C@@H](CC(C)C)C(=O)N[C@@H](CCC(=O)O)C(=O)N[C@H](C(=O)N[C@@H](CC(C)C)C(=O)N[C@H](C(=O)N[C@H](C(=O)NCC(=O)N[C@@H](CC(C)C)C(=O)N1CCC[C@H]1C(=O)N[C@@H](C)C(=O)N[C@@H](CC(C)C)C(=O)N[C@H](C(=O)N[C@@H](CO)C(=O)N[C@@H](Cc1c[nH]c2ccccc12)C(=O)N[C@H](C(=O)N[C@@H](CCC(=O)O)C(=O)N[C@@H](CCC(=O)O)C(=O)N[C@@H](CCC(=O)O)C(=O)N[C@@H](CCC(=O)O)C(=O)N[C@@H](CCC(N)=O)C(=O)N[C@@H](CCC(N)=O)C(N)=O)[C@@H](C)CC)[C@@H](C)CC)[C@@H](C)O)[C@@H](C)O)C(C)C)C(C)C` [Peptide 2]: the toxicity entry in data set [2] was “non-toxic”.
